Source: ChEMBL document CHEMBL1201862, “PubChem BioAssay data set” (2004)
Calls of active or inactive are those of the source.

Columns and labels:
Type in all cases: functional
[1] = molecular target: Protein kinase C theta type (Homo sapiens, UniProt Q04759); assay: Navigating the Kinome. Panel member name: PRKCQ
[2] = molecular target: Dual specificity protein kinase CLK2 (Homo sapiens, UniProt P49760)
[3] = molecular target: Dual specificity mitogen-activated protein kinase kinase 1 (Homo sapiens, UniProt Q02750); assay: Navigating the Kinome. Panel member name: MAP2K1
[4] = molecular target: Tyrosine-protein kinase JAK2 (Homo sapiens, UniProt O60674);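 note: JAK2 tested as one member of a kinase panel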
[5] = molecular target: Serine/threonine-protein kinase TBK1 (Homo sapiens, UniProt Q9UHD2); assay: Navigating the Kinome. Panel member name: TBK1
[6] = molecular target: 5'-AMP-activated protein kinase catalytic subunit alpha-1 (Homo sapiens, UniProt Q13131)
[7] = molecular target: ALK tyrosine kinase receptor (Homo sapiens, UniProt Q9UM73);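 note: ALK tested as one member of a kinase panel screen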
[8] = molecular target: Proto-oncogene tyrosine-protein kinase receptor Ret (Homo sapiens, UniProt P07949);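 note: measured within a kinome-wide profiling panel, RET as the panel member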
[9] = molecular target: Tyrosine-protein kinase receptor TYRO3 (Homo sapiens, UniProt Q06418);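 note: TYRO3 value obtained as one member of a kinome-wide profiling panel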
[10] = molecular target: Serine/threonine-protein kinase D3 (Homo sapiens, UniProt O94806);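 note: determined within a kinase panel screen, with PRKCN as the panel member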
[11] = molecular target: Death-associated protein kinase 3 (Homo sapiens, UniProt O43293);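 note: measured as one member of a kinome-wide profiling panel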
[12] = molecular target: Activin receptor type-1 (Homo sapiens, UniProt Q04771); assay: Navigating the Kinome. Panel member name: ACVR1
[13] = molecular target: Mitogen-activated protein kinase 8 (Homo sapiens, UniProt P45983);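 note: value comes from one member of a kinome-wide kinase profiling panel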
[14] = molecular target: Serine/threonine-protein kinase pim-1 (Homo sapiens, UniProt P11309)
[15] = molecular target: Aurora kinase A (Homo sapiens, UniProt O14965);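 note: value from the Navigating the Kinome kinase panel profiling, panel entry STK6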
[16] = molecular target: Serine/threonine-protein kinase PAK 4 (Homo sapiens, UniProt O96013);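 note: value obtained within a kinome profiling panel in which PAK4 was one of the panel members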
[17] = molecular target: Fibroblast growth factor receptor 1 (Homo sapiens, UniProt P11362)
[18] = molecular target: Casein kinase I isoform alpha (Homo sapiens, UniProt P48729)
[19] = molecular target: LIM domain kinase 1 (Homo sapiens, UniProt P53667); assay: Navigating the Kinome. Panel member name: LIMK1
[20] = molecular target: Serine/threonine-protein kinase TAO1 (Homo sapiens, UniProt Q7L7X3)
[21] = molecular target: Glycogen synthase kinase-3 alpha (Homo sapiens, UniProt P49840);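 note: GSK3A result taken from a broad kinome-wide kinase panel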
[22] = molecular target: Mitogen-activated protein kinase kinase kinase kinase 2 (Homo sapiens, UniProt Q12851);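 note: measured as one member of a kinome-wide kinase panel, with MAP4K2 as the panel entry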
[23] = molecular target: Hepatocyte growth factor receptor (Homo sapiens, UniProt P08581);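 note: kinase panel profiling across the kinome, with MET as the panel member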
[24] = molecular target: Activated CDC42 kinase 1 (Homo sapiens, UniProt Q07912); assay: Navigating the Kinome. Panel member name: ACK1
[25] = molecular target: Serine/threonine-protein kinase Chk1 (Homo sapiens, UniProt O14757);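 note: measured as one member of a kinome-wide kinase profiling panel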
[26] = molecular target: Tyrosine-protein kinase ABL1 (Homo sapiens, UniProt P00519)
[27] = molecular target: Vascular endothelial growth factor receptor 2 (Homo sapiens, UniProt P35968)
[28] = molecular target: Dual specificity tyrosine-phosphorylation-regulated kinase 1B (Homo sapiens, UniProt Q9Y463); assay: Navigating the Kinome. Panel member name: DYRK1B
[29] = molecular target: cAMP-dependent protein kinase catalytic subunit PRKX (Homo sapiens, UniProt P51817)
[30] = molecular target: Platelet-derived growth factor receptor alpha (Homo sapiens, UniProt P16234); assay: Navigating the Kinome. Panel member name: PDGFRA
[31] = molecular target: Leucine-rich repeat serine/threonine-protein kinase 2 (Homo sapiens, UniProt Q5S007);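 note: value from a broad kinome-wide panel profiling study in which LRRK2 was one of the kinases tested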
[32] = molecular target: Aurora kinase B (Homo sapiens, UniProt Q96GD4)
[33] = molecular target: Cyclin-dependent kinase 19 (Homo sapiens, UniProt Q9BWU1); assay: Navigating the Kinome. Panel member name: CDC2L6
[34] = molecular target: Rho-associated protein kinase 1 (Homo sapiens, UniProt Q13464);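 note: measured within a broad kinome-wide panel profiling many kinases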
[35] = molecular target: Serine/threonine-protein kinase Nek2 (Homo sapiens, UniProt P51955)
[36] = molecular target: Cyclin-dependent kinase 8 (Homo sapiens, UniProt P49336); assay: Navigating the Kinome. Panel member name: CDK8
[37] = molecular target: Cyclin-dependent kinase 7 (Homo sapiens, UniProt P50613);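 note: value comes from a kinome-wide kinase profiling panel in which CDK7 is one member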
[38] = molecular target: Vascular endothelial growth factor receptor 1 (Homo sapiens, UniProt P17948);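 note: measured within a kinome-wide profiling panel, FLT1 as the panel member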
[39] = molecular target: Glycogen synthase kinase-3 beta (Homo sapiens, UniProt P49841);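 note: value comes from a broad kinome profiling panel, with GSK3B as the panel member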
[40] = molecular target: Cyclin-dependent kinase 9 (Homo sapiens, UniProt P50750);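 note: value from the CDK9 entry of a kinome-spanning kinase panel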
[41] = molecular target: BDNF/NT-3 growth factors receptor (Homo sapiens, UniProt Q16620);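 note: NTRK2 measured as one member of a broad kinome-wide kinase profiling panel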
[42] = molecular target: cAMP-dependent protein kinase catalytic subunit alpha (Homo sapiens, UniProt P17612)
[43] = molecular target: Dual specificity protein kinase CLK4 (Homo sapiens, UniProt Q9HAZ1)
[44] = molecular target: Mitogen-activated protein kinase kinase kinase kinase 4 (Homo sapiens, UniProt O95819)
[45] = molecular target: Macrophage-stimulating protein receptor (Homo sapiens, UniProt Q04912); assay: Navigating the Kinome. Panel member name: MST1R
[46] = molecular target: Macrophage colony-stimulating factor 1 receptor (Homo sapiens, UniProt P07333);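 note: value comes from the Navigating the Kinome screening panel, CSF1R member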
[47] = molecular target: Dual specificity mitogen-activated protein kinase kinase 2 (Homo sapiens, UniProt P36507); assay: Navigating the Kinome. Panel member name: MAP2K2
[48] = molecular target: Dual specificity tyrosine-phosphorylation-regulated kinase 1A (Homo sapiens, UniProt Q13627);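 note: measured against DYRK1A as one member of a broad kinome profiling panel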
[49] = molecular target: Inhibitor of nuclear factor kappa-B kinase subunit epsilon (Homo sapiens, UniProt Q14164); assay: Navigating the Kinome. Panel member name: IKBKE
[50] = molecular target: Calcium/calmodulin-dependent protein kinase type II subunit alpha (Homo sapiens, UniProt Q9UQM7); assay: Navigating the Kinome. Panel member name: CAMK2A
[51] = molecular target: Leukocyte tyrosine kinase receptor (Homo sapiens, UniProt P29376); assay: Navigating the Kinome. Panel member name: LTK
[52] = molecular target: Melanin-concentrating hormone receptor 1 (Homo sapiens, UniProt Q99705); assay: Late-stage fluorescence-based counterscreen for antagonists of the G-protein coupled receptor 7 (GPR7): cell-based dose response assay to identify antagonists of the melanin-concentrating hormone receptor 1 (MCHR1) Set 6.
[53] = molecular target: Neuropeptides B/W receptor type 1 (Homo sapiens, UniProt P48145); assay: GPR7 antagonist potency, late-stage follow-up, cell-based, fluorescence, dose response, set 6 (AID 588583)
[54] = molecular target: Phosphorylase b kinase gamma catalytic chain, liver/testis isoform (Homo sapiens, UniProt P15735);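 note: PHKG2 measured as one member of a kinome-wide kinase panel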
[55] = molecular target: RAC-gamma serine/threonine-protein kinase (Homo sapiens, UniProt Q9Y243)
[56] = molecular target: Testis-specific serine/threonine-protein kinase 2 (Homo sapiens, UniProt Q96PF2);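 note: part of the Navigating the Kinome panel, target entry STK22B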
[57] = molecular target: SRSF protein kinase 1 (Homo sapiens, UniProt Q96SB4);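 note: measured as one member of a kinome-wide kinase profiling panel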
[58] = molecular target: Casein kinase II subunit alpha (Homo sapiens, UniProt P68400)
[59] = molecular target: Calcium/calmodulin-dependent protein kinase type II subunit delta (Homo sapiens, UniProt Q13557)
[60] = molecular target: Tyrosine-protein kinase JAK3 (Homo sapiens, UniProt P52333)
[61] = molecular target: Casein kinase I isoform gamma-1 (Homo sapiens, UniProt Q9HCP0);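 note: measured as the CSNK1G1 member of a kinome profiling panel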
[62] = molecular target: Proto-oncogene tyrosine-protein kinase ROS (Homo sapiens, UniProt P08922);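 note: ROS1 tested as one member of a kinome-wide kinase panel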
[63] = molecular target: Testis-specific serine/threonine-protein kinase 1 (Homo sapiens, UniProt Q9BXA7)
[64] = molecular target: Homeodomain-interacting protein kinase 2 (Homo sapiens, UniProt Q9H2X6);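 note: measured within a kinome-wide kinase profiling panel, HIPK2 being one panel member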
[65] = molecular target: Calcium/calmodulin-dependent protein kinase kinase 2 (Homo sapiens, UniProt Q96RR4); assay: Navigating the Kinome. Panel member name: CAMKK2
[66] = molecular target: Mitogen-activated protein kinase 13 (Homo sapiens, UniProt O15264)
[67] = molecular target: Casein kinase I isoform delta (Homo sapiens, UniProt P48730);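 note: measured as one member (CSNK1D) of a kinome panel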
[68] = molecular target: Calcium/calmodulin-dependent protein kinase type II subunit beta (Homo sapiens, UniProt Q13554)
[69] = molecular target: Mitogen-activated protein kinase 1 (Homo sapiens, UniProt P28482)
[70] = molecular target: Focal adhesion kinase 1 (Homo sapiens, UniProt Q05397);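 note: measured as one member of a kinome panel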
[71] = molecular target: Interleukin-1 receptor-associated kinase 1 (Homo sapiens, UniProt P51617);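 note: IRAK1 tested as one member of a kinome panel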
[72] = molecular target: Interleukin-1 receptor-associated kinase 4 (Homo sapiens, UniProt Q9NWZ3)
[73] = molecular target: Tyrosine-protein kinase Fyn (Homo sapiens, UniProt P06241)
[74] = molecular target: Homeodomain-interacting protein kinase 4 (Homo sapiens, UniProt Q8NE63)
[75] = molecular target: Serine/threonine-protein kinase pim-2 (Homo sapiens, UniProt Q9P1W9);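 note: value comes from a broad kinase panel profiling study in which PIM2 was one of the panel members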
[76] = molecular target: Serine/threonine-protein kinase DCLK1 (Homo sapiens, UniProt O15075);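 note: affinity for DCLK1 (listed as DCAMKL1) measured as one member of a kinome-wide kinase profiling panel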
[77] = molecular target: Receptor tyrosine-protein kinase erbB-4 (Homo sapiens, UniProt Q15303);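 note: ERBB4 member of a kinome-wide kinase profiling panel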
[78] = molecular target: Serine/threonine-protein kinase MRCK alpha (Homo sapiens, UniProt Q5VT25)
[79] = molecular target: Serine/threonine-protein kinase 3 (Homo sapiens, UniProt Q13188);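 note: measured as one member of a kinome-wide kinase panel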

Chain of Glycogen synthase kinase-3 alpha (P49840 whole entry): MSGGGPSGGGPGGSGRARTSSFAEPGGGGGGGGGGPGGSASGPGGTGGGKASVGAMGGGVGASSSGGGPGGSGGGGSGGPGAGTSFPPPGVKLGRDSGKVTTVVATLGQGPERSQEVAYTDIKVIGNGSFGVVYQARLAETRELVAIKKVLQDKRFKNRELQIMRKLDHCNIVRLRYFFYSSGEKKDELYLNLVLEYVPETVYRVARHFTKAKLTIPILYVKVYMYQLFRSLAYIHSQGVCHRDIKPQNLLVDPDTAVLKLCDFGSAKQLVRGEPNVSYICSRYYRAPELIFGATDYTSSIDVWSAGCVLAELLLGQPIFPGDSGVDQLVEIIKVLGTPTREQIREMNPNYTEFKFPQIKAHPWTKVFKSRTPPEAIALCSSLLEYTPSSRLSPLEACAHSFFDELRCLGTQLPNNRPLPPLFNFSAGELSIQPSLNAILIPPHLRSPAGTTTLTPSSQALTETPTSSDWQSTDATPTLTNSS
Chain of Cyclin-dependent kinase 19 (Q9BWU1 whole entry): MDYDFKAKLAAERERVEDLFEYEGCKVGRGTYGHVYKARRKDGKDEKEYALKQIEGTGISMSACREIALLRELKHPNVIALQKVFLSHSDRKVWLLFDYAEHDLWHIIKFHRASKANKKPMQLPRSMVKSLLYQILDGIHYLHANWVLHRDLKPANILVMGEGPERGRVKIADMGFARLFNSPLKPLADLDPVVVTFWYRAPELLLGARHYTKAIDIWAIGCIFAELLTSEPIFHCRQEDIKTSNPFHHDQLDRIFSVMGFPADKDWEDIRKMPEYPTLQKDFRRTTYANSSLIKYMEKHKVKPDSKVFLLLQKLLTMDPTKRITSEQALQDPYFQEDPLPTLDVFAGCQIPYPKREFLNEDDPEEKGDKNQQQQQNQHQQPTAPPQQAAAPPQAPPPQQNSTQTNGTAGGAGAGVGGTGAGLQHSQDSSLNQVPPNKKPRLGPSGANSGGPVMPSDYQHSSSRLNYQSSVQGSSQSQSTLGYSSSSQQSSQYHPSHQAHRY
Chain of Dual specificity protein kinase CLK2 (P49760 whole entry): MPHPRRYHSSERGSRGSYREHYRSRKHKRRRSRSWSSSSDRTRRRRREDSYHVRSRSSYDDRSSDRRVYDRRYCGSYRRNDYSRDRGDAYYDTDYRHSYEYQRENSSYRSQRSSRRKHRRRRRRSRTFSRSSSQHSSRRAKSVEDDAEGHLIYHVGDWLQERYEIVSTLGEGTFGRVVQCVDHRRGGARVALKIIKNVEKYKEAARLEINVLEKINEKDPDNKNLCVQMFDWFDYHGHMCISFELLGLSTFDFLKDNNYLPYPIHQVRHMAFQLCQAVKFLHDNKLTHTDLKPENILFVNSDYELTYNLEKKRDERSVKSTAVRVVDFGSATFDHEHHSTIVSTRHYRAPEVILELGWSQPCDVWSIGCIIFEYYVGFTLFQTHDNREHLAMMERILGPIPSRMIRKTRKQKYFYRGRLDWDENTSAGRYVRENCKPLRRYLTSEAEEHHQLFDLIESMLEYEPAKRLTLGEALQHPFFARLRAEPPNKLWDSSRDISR
Chain of Platelet-derived growth factor receptor alpha (P16234 whole entry): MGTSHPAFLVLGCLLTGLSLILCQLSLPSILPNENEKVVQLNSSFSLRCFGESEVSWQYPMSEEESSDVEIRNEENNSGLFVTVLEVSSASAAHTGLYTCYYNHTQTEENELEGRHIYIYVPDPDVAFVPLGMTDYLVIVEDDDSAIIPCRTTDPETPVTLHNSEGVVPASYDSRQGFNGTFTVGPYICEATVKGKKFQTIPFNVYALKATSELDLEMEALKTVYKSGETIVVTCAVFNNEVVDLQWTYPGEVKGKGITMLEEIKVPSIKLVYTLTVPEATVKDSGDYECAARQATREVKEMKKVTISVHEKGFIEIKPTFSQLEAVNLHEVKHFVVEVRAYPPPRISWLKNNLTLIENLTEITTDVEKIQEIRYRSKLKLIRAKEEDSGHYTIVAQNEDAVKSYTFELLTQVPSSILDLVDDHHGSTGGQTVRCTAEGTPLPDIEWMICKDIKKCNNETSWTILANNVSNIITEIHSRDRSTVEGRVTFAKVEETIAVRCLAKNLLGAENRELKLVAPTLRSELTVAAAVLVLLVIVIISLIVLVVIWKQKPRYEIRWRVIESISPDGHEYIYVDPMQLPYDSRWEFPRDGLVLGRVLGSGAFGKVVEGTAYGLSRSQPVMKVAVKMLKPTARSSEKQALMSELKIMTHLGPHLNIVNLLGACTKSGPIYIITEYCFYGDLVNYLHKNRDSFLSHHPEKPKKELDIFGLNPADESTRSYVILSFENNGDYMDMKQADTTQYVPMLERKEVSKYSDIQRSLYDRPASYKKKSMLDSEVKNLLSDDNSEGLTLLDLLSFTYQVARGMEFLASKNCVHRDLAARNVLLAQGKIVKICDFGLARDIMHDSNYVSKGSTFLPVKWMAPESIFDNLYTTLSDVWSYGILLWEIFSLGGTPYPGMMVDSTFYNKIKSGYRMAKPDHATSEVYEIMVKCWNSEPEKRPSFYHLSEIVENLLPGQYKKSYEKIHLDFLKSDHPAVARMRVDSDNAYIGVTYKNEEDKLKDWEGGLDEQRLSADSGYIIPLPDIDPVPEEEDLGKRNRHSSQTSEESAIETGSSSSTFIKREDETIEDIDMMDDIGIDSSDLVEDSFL
Chain of Cyclin-dependent kinase 9 (P50750 whole entry): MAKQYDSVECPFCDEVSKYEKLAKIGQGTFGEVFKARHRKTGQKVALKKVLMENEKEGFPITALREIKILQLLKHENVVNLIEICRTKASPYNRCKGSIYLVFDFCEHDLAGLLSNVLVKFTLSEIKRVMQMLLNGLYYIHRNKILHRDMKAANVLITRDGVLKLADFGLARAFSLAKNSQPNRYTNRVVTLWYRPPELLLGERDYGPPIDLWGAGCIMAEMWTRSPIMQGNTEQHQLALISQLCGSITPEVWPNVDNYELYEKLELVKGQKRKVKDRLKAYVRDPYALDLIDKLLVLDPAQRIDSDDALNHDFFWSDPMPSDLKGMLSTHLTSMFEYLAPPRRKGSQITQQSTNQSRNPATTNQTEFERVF
Chain of BDNF/NT-3 growth factors receptor (Q16620 whole entry): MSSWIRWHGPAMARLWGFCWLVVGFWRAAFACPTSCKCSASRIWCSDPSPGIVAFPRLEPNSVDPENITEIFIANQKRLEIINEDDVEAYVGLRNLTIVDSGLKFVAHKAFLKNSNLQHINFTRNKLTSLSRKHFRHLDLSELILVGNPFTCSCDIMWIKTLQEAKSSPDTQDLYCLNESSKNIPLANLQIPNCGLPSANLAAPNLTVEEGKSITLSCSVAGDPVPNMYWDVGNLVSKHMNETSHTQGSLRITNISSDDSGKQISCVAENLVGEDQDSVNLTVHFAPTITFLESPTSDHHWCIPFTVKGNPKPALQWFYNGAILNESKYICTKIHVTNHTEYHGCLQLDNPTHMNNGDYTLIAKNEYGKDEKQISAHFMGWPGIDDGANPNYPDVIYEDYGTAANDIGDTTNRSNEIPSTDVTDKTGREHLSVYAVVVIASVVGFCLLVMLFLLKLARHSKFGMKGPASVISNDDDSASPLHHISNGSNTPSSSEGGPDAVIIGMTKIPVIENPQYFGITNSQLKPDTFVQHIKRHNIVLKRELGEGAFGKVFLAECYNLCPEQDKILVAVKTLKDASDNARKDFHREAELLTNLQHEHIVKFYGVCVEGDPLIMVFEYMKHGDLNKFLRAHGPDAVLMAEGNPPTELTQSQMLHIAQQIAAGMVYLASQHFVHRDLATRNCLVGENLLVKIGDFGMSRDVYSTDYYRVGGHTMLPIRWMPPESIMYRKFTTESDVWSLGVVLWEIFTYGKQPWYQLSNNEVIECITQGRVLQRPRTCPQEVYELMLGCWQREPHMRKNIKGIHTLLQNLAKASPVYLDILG
Chain of Calcium/calmodulin-dependent protein kinase type II subunit alpha (Q9UQM7 whole entry): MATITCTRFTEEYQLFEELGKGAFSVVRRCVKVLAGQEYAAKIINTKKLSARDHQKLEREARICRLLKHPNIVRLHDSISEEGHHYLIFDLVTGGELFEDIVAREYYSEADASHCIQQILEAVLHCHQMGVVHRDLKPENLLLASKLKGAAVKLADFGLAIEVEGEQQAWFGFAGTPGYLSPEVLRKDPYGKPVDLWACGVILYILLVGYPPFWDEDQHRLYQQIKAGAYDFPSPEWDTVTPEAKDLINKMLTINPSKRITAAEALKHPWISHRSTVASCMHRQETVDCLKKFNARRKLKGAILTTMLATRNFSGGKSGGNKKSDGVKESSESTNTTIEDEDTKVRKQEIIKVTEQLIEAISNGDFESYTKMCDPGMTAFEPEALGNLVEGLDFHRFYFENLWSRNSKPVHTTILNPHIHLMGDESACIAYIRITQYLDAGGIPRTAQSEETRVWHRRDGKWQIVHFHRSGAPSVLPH
Chain of Cyclin-dependent kinase 7 (P50613 whole entry): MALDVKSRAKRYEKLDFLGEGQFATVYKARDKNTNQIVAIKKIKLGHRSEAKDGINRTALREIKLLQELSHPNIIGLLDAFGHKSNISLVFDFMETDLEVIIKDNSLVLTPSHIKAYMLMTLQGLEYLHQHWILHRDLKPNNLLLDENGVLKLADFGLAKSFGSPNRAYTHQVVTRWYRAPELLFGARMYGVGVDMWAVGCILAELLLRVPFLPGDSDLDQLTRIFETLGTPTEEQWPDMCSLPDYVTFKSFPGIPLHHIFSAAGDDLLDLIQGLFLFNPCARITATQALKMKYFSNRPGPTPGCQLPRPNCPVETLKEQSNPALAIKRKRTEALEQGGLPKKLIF
Chain of Dual specificity mitogen-activated protein kinase kinase 1 (Q02750 whole entry): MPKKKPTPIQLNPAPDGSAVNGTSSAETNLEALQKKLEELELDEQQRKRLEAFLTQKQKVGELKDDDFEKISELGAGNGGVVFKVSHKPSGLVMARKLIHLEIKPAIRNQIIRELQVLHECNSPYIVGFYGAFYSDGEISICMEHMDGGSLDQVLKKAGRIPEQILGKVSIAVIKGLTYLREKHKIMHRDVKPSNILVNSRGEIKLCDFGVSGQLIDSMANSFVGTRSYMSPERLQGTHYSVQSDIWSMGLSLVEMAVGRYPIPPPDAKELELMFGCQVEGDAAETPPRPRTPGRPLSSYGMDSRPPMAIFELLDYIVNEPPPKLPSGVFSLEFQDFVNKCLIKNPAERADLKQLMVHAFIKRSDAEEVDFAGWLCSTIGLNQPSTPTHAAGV

Structure (SMILES): Nc1ncnc2c1N=C(c1ccccc1)CCN2
- Ki [1]: 39.8 µM (active)
- Ki [2]: 5.01 µM (active)
- Ki [3]: 5.01 µM (active)
- Ki [4]: 100 µM (active)
- Ki [5]: 39.8 µM (active)
- Ki [6]: 15.8 µM (active)
- Ki [7]: 10 µM (active)
- Ki [8]: 12.6 µM (active)
- Ki [9]: 15.8 µM (active)
- Ki [10]: 12.6 µM (active)
- Ki [11]: 7.94 µM (active)
- Ki [12]: 10 µM (active)
- Ki [13]: 79.4 µM (active)
- Ki [14]: 20 µM (active)
- Ki [15]: 7.94 µM (active)
- Ki [16]: 100 µM (active)
- Ki [17]: 63.1 µM (active)
- Ki [18]: 15.8 µM (active)
- Ki [19]: 12.6 µM (active)
- Ki [20]: 79.4 µM (active)
- Ki [21]: 63.1 µM (active)
- Ki [22]: 10 µM (active)
- Ki [23]: 20 µM (active)
- Ki [24]: 39.8 µM (active)
- Ki [25]: 25.1 µM (active)
- Ki [26]: 3.98 µM (active)
- Ki [27]: 2 µM (active)
- Ki [28]: 2 µM (active)
- Ki [29]: 79.4 µM (active)
- Ki [30]: 25.1 µM (active)
- Ki [31]: 2 µM (active)
- Ki [32]: 1.58 µM (active)
- Ki [33]: > 100 µM (inactive)
- Ki [34]: 25.1 µM (active)
- Ki [35]: 31.6 µM (active)
- Ki [36]: 12.6 µM (active)
- Ki [37]: 39.8 µM (active)
- Ki [38]: 12.6 µM (active)
- Ki [39]: 50.1 µM (active)
- Ki [40]: > 63.1 µM (inactive)
- Ki [41]: 63.1 µM (active)
- Ki [42]: 12.6 µM (active)
- Ki [43]: 0.398 µM (active)
- Ki [44]: 0.794 µM (active)
- Ki [45]: 2 µM (active)
- Ki [46]: > 100 µM (inactive)
- Ki [47]: 6.31 µM (active)
- Ki [48]: 3.16 µM (active)
- Ki [49]: 31.6 µM (active)
- Ki [50]: 31.6 µM (active)
- Ki [51]: 3.98 µM (active)

Structure (SMILES): C=Cc1cnn(Cc2cccc3ccccc23)c(=O)c1C(C#N)c1ccccc1 (centres undefined)
- IC50 [52]: 2.55 µM (active)
- IC50 [53]: 2.55 µM (active)

Structure (SMILES): Cc1cc(Nc2cc(N3CCN(C)CC3)nc(Sc3ccc(NC(=O)C4CC4)cc3)n2)[nH]n1 [TOZASERTIB]
- Ki [2]: > 3.98 µM (inactive)
- Ki [3]: 1.26 µM (active)
- Ki [54]: > 5.01 µM (inactive)
- Ki [55]: > 10 µM (inactive)
- Ki [56]: > 1.58 µM (inactive)
- Ki [57]: > 7.94 µM (inactive)
- Ki [58]: > 6.31 µM (inactive)
- Ki [59]: > 6.31 µM (inactive)
- Ki [60]: > 5.01 µM (inactive)
- Ki [61]: > 6.31 µM (inactive)
- Ki [62]: 0.158 µM (active)
- Ki [63]: > 1.58 µM (inactive)
- Ki [64]: > 3.16 µM (inactive)
- Ki [65]: > 2.51 µM (inactive)
- Ki [66]: > 7.94 µM (inactive)
- Ki [21]: > 3.98 µM (inactive)
- Ki [67]: > 7.94 µM (inactive)
- Ki [68]: > 7.94 µM (inactive)
- Ki [69]: > 7.94 µM (inactive)
- Ki [70]: > 6.31 µM (inactive)
- Ki [71]: > 7.94 µM (inactive)
- Ki [30]: > 0.501 µM (inactive)
- Ki [72]: 2.51 µM (active)
- Ki [33]: 0.2 µM (active)
- Ki [73]: 3.16 µM (active)
- Ki [74]: > 7.94 µM (inactive)
- Ki [75]: > 1.58 µM (inactive)
- Ki [76]: > 10 µM (inactive)
- Ki [37]: > 3.98 µM (inactive)
- Ki [40]: > 1.58 µM (inactive)
- Ki [41]: 0.316 µM (active)
- Ki [77]: > 3.98 µM (inactive)
- Ki [78]: > 10 µM (inactive)
- Ki [48]: > 2 µM (inactive)
- Ki [50]: > 3.98 µM (inactive)
- Ki [79]: > 2.51 µM (inactive)
